Patent publication US10597388B2, “Pyridazinone herbicides” (FMC CORPORATION, priority 2014, dated 2020)

How the values were obtained:
Test in all cases: Test D controlled growth environment herbicide test, pre- and postemergence
Assay type in all cases: in vivo
[1] = tested on: wheat, winter (winter wheat, Triticum aestivum)
Outline: (§1)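 Pre-emergence: seeds sown in silt loam soil were sprayed with compound in a non-phytotoxic solvent mix containing surfactant. Post-emergence: plants at 2 to 18 cm (1- to 4-leaf stage) in peat moss/vermiculite medium got the same formulation. Visual 0–100 rating versus controls after 14 to 21 d.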

[2] = tested on: buckwheat, wild (wild buckwheat, Polygonum convolvulus)
Outline: as §1

[3] = tested on: windgrass (Apera spica-venti)
Outline: as §1

[4] = tested on: field violet (Viola arvensis)
Outline: as §1

[5] = tested on: chamomile (scentless chamomile, Matricaria inodora)
Outline: as §1

[6] = tested on: lambsquarters (Chenopodium album)
Outline: as §1

[7] = tested on: canarygrass (Phalaris minor)
Outline: as §1

[8] = tested on: bromegrass, downy (downy bromegrass, Bromus tectorum)
Outline: as §1

[9] = tested on: galium (catchweed bedstraw, Galium aparine)
Outline: as §1

[10] = tested on: foxtail, green (green foxtail, Setaria viridis)
Outline: as §1

[11] = tested on: chickweed (common chickweed, Stellaria media)
Outline: as §1

[12] = tested on: oilseed rape (Brassica napus)
Outline: as §1

[13] = tested on: ryegrass, Italian (Italian ryegrass, Lolium multiflorum)
Outline: as §1

[14] = tested on: deadnettle (henbit deadnettle, Lamium amplexicaule)
Outline: as §1

[15] = Postemergence, 31 g ai/ha, scale 0 to 100 (0 no effect, 100 complete control)
[16] = Postemergence, 125 g ai/ha, visual rating on scale 0 (no effect) to 100 (complete control), 14 to 21 d
[17] = Postemergence, 250 g ai/ha, scale 0 to 100 (0 no effect, 100 complete control)
[18] = Preemergence, 62 g ai/ha, scale 0 to 100 (0 no effect, 100 complete control)
[19] = Preemergence, 125 g ai/ha, scale 0 to 100 (0 no effect, 100 complete control)
[20] = Preemergence, 250 g ai/ha, scale 0 to 100, 0 no effect, 100 complete control
[21] = postemergence, 62 g ai/ha, scale 0 to 100, 0 no effect, 100 complete control

Cc1nn(C)c(=O)c(-c2cccc3ccccc23)c1O [Compound 11, 5-hydroxy-2,6-dimethyl-4-(1-naphthalenyl)-3(2H)-pyridazinone]
0: Plant response rating (scale of 0 to 100), Wheat, Winter ([1]; Preemergence, 31 g ai/ha) | Plant response rating, Wheat, Winter [1, 18] | Oilseed Rape plant response rating [12, 15] | Plant response rating, Oilseed Rape [12, 18]
15: Plant response rating, Wheat, Winter [1, 16] | Plant response rating, Wheat, Winter [1, 21] | Plant response rating, Buckwheat, Wild [2, 18] | Plant response rating, Buckwheat, Wild [2, 19] | Plant response rating, Windgrass [3, 16] | Bromegrass, Downy plant response rating [8, 15] | Plant response rating, Bromegrass, Downy [8, 21] | Plant response rating, Foxtail, Green [10, 19] | Plant response rating, Oilseed Rape [12, 21] | Plant response rating, Deadnettle [14, 18]
25: Plant response rating, Wheat, Winter [1, 17] | Plant response rating, Buckwheat, Wild [2, 20] | Plant response rating (scale of 0 to 100), Windgrass ([3]; Preemergence, 31 g ai/ha) | Plant response rating (scale of 0 to 100), Lambsquarters ([6]; Preemergence, 31 g ai/ha) | Plant response rating, Bromegrass, Downy [8, 16] | Plant response rating, Foxtail, Green [10, 21]
40: Chamomile plant response rating [5, 15]
45: Buckwheat, Wild plant response rating [2, 15] | Plant response rating, Buckwheat, Wild [2, 21] | Plant response rating (scale of 0 to 100), Canarygrass ([7]; Preemergence, 31 g ai/ha) | Chickweed plant response rating [11, 15]
65: Field Violet plant response rating [4, 15] | Plant response rating, Field Violet [4, 21] | Plant response rating, Chamomile [5, 21] | Plant response rating, Foxtail, Green [10, 16] | Plant response rating, Foxtail, Green [10, 20]
95: Plant response rating, Buckwheat, Wild [2, 17]
10: Wheat, Winter plant response rating [1, 15] | Windgrass plant response rating [3, 15] | Plant response rating, Windgrass [3, 21] | Canarygrass plant response rating [7, 15] | Plant response rating (scale of 0 to 100), Foxtail, Green ([10]; Preemergence, 31 g ai/ha) | Plant response rating, Foxtail, Green [10, 18] | Plant response rating (scale of 0 to 100), Deadnettle ([14]; Preemergence, 31 g ai/ha)
35: Plant response rating, Windgrass [3, 18] | Plant response rating, Lambsquarters [6, 18]
20: Plant response rating, Wheat, Winter [1, 19] | Plant response rating (scale of 0 to 100), Buckwheat, Wild ([2]; Preemergence, 31 g ai/ha) | Plant response rating, Windgrass [3, 17] | Plant response rating, Canarygrass [7, 21] | Plant response rating, Bromegrass, Downy [8, 19] | Plant response rating (scale of 0 to 100), Chickweed ([11]; Preemergence, 31 g ai/ha) | Plant response rating, Oilseed Rape [12, 16]
100: Plant response rating, Field Violet [4, 18] | Plant response rating, Field Violet [4, 19] | Plant response rating, Field Violet [4, 20] | Plant response rating, Lambsquarters [6, 19] | Plant response rating, Lambsquarters [6, 20] | Plant response rating, Galium [9, 19] | Plant response rating, Galium [9, 20] | Plant response rating, Chickweed [11, 17] | Plant response rating, Chickweed [11, 18] | Plant response rating, Chickweed [11, 19] | Plant response rating, Chickweed [11, 20] | Plant response rating, Ryegrass, Italian [13, 19] | Plant response rating, Ryegrass, Italian [13, 20] | Plant response rating, Deadnettle [14, 16] | Plant response rating, Deadnettle [14, 17] | Plant response rating, Deadnettle [14, 20] | Plant response rating, Deadnettle [14, 21]
75: Plant response rating, Windgrass [3, 20] | Plant response rating, Field Violet [4, 16] | Plant response rating, Chamomile [5, 16] | Deadnettle plant response rating [14, 15]
80: Plant response rating, Lambsquarters [6, 16] | Plant response rating, Lambsquarters [6, 21] | Plant response rating, Galium [9, 18] | Plant response rating, Chickweed [11, 16] | Ryegrass, Italian plant response rating [13, 15]
55: Plant response rating, Windgrass [3, 19] | Plant response rating, Canarygrass [7, 17] | Plant response rating, Canarygrass [7, 18] | Plant response rating, Bromegrass, Downy [8, 20] | Plant response rating, Oilseed Rape [12, 17]
85: Plant response rating (scale of 0 to 100), Field Violet ([4]; Preemergence, 31 g ai/ha) | Plant response rating, Lambsquarters [6, 17] | Galium plant response rating [9, 15] | Plant response rating, Galium [9, 21] | Plant response rating, Ryegrass, Italian [13, 16] | Plant response rating (scale of 0 to 100), Ryegrass, Italian ([13]; Preemergence, 31 g ai/ha) | Plant response rating, Ryegrass, Italian [13, 21]
90: Plant response rating, Field Violet [4, 17] | Plant response rating, Chamomile [5, 17] | Plant response rating, Canarygrass [7, 19] | Plant response rating, Canarygrass [7, 20] | Plant response rating, Galium [9, 16] | Plant response rating, Galium [9, 17] | Plant response rating, Chickweed [11, 21] | Plant response rating, Ryegrass, Italian [13, 17] | Plant response rating, Ryegrass, Italian [13, 18]
50: Plant response rating, Bromegrass, Downy [8, 17] | Plant response rating, Deadnettle [14, 19]
70: Plant response rating (scale of 0 to 100), Galium ([9]; Preemergence, 31 g ai/ha) | Plant response rating, Foxtail, Green [10, 17]
30: Plant response rating, Wheat, Winter [1, 20] | Plant response rating, Canarygrass [7, 16]
5: Plant response rating (scale of 0 to 100), Bromegrass, Downy ([8]; Preemergence, 31 g ai/ha) | Plant response rating, Bromegrass, Downy [8, 18] | Foxtail, Green plant response rating [10, 15] | Plant response rating (scale of 0 to 100), Oilseed Rape ([12]; Preemergence, 31 g ai/ha) | Plant response rating, Oilseed Rape [12, 19] | Plant response rating, Oilseed Rape [12, 20]
60: Plant response rating, Buckwheat, Wild [2, 16] | Lambsquarters plant response rating [6, 15]
